Results on one compound are retold here after US6773702B2, “Use of combretastatin A4 and its prodrugs as an immune enhancing therapy” (OXiGENE, Inc., priority 2000, dated 2004).

Series [1] deals with BN7005-H1D2 colon cancer cells. Briefly: Tumor growth with IL-18/IFN-γ vaccination plus CA4P and/or L-NAME (FIG. 6). In kind it is in vivo, rat. How it is done: FIG. 6 illustrates enhancement of the therapeutic effect of vaccination with IL-18/IFN-γ producing tumor transfectant […] cells by concurrent treatment with low dose combretastatin-A4 prodrug and/or L-NAME. Mean tumor volume±SEM is indicated. Significance of differences compared to the PBS control was evaluated by the Student's t test.
Four groups of 6 rats each were inoculated intrahepatically with 1×10^5 wild type colon cancer cells (BN7005-H1D2) on day 0. Drug treatment was initiated on day 7, when the tumor was macroscopically visible as a small nodule, and was repeated 5 days a week. CA4-P was administered i.p. at a dose of 5 mg/kg and L-NAME by gavage at a dose of 48 mg/rat. Vaccination was given twice i.p. on day 10.and 17 with 2×10^6 tumor cells producing IL-18 and IFN-γ, respectively. No drug treatment was given on the day of vaccination and the day after. On day 28 all animals were laparotomized and tumor diameters measured (the longest diameter (a) and the one perpendicular to the first (b) and tumor volume calculated according to the formula 0.4×a×b×b.
Referring to FIG. 6, wild-type (BN7005-H1D2) colon cancer cells were inoculated intrahepatically and combretastatin A4 prodrug treatment began daily on day 7 when the tumors were macroscopically visible. L-NAME, a well known NO inhibitor and effective antitumor agent, was also administered daily. On day 10 and 17 vaccination occurred using BN7005-H1D2 cells transfected with IL-18/IFN-gamma. […] One likely explanation was that both L-NAME and Combretastatin A4 were doing the same thing; i.e. inhibiting the production of proinflammatory cytokines that cause immune suppression.

Series [2] has as its system spleen cells isolated from BN7005-H1D2 tumor-bearing rats. Briefly: In vitro proliferative response of spleen cells after 20 days of in vivo CA4P at 5 or 2 mg/kg (FIG. 2A). The settings on record: 20 days daily treatment, H1D2-WT or IL-18 transfectant stimulator cells. On the set-up: species or system rat. How it is done: FIG. 2A illustrates the in vitro immune proliferative response of spleen cells isolated from BN7005-H1D2 tumor-bearing rats previously treated with a combination of active immunomodulatory gene therapy (IL-18 and IL-12 transfected tumor cells) and CA4P (5 or 2 mg/kg) in vivo. The cells were stimulated with untransfected (H1D2-WT) tumor cells or IL-18 (H1D2-IL18) transfected tumor cells after 20 days of tumor growth.
Results of in vitro studies indicate that the dose of Combretastatin A4 Prodrug that is administered is critical for obtaining a specific immunological effect. […] Proliferation of spleen immune cells was monitored by 3-H-thymidine incorporation (CPM) after 5 days incubation. […] Eight μm cryosections were examined directly in a fluorescence microscope and vessel volume was determined (Springer, MP., Ip, TK., and Blau, HM). Angiogenesis monitored by perfusion with space-filling microbead suspension (Mol. Ther. 1: 82-87, 2000). […]
In a second experiment represented in FIG. 2A, wild type H1D2-WT or IL-18 transfected (H1D2-IL-18) cells were used as immune stimulants to assess the in vitro proliferative response of spleen cells isolated from tumor-bearing rats previously treated in vivo with 2 or 5 mg/kg combretastatin A4 prodrug for 20 days. The spleen cells were cultured in RPMI medium and their growth monitored by the incorporation of tritiated thymidine into DNA. […]

For series [3] the following is noted: cited from earlier work.
The subject of series [4] is BT4Cn tumor blood vessels. The series is described as follows: Tumor vascular shut-down, open tumor blood vessels 24 h after CA4P (FIG. 2B). In kind it is in vivo, rat. How it is done: FIG. 2B illustrates the percentage of open tumor blood vessels in an excised tumor 24 hours after administration of various doses of CA4P to a BT4Cn tumor bearing rat.
Results of in vitro studies indicate that the dose of Combretastatin A4 Prodrug that is administered is critical for obtaining a specific immunological effect. The specific immunomodulatory properties of CA4P are only observed at a low dosage, whereas higher doses fail to remove the immunosuppressive effects of the established tumor or induce suppression of lymphocyte activity. […] Proliferation of spleen immune cells was monitored by 3-H-thymidine incorporation (CPM) after 5 days incubation. […] An analysis of tumor pathology was performed on BT4Cn tumor-bearing rats when the tumor had growth to a size of 300 mm^3. Rats received single intraperitoneal injections of various doses of CA4P. Twenty-four hours later they were injected with 0.25 ml of Fluo-Spheres bead in the tail vein and sacrificed after 3 min. Tumors were removed and prepared for cryosection. Eight μm cryosections were examined directly in a fluorescence microscope and vessel volume was determined (Springer, MP., Ip, TK., and Blau, HM). Angiogenesis monitored by perfusion with space-filling microbead suspension (Mol. Ther. 1: 82-87, 2000). […] Thus in a preferred embodiment, the dose at which CA4P is administered to achieve a desired immune enhancing effect without vascular shutdown is less than 5 mg/kg.

In series [5] the test system is NO production by spleen cells of tumor-free immunized rats. Briefly: NO production by spleen cells (Griess technique) after in vitro preincubation with CA4P. In kind it is cell-based, rat. The settings on record: for Nitric oxide production into supernatant: unseparated spleen cells (L0), CA4-P 0.15 μg/ml preincubated 3 h. How it is done: One of the main suppressive molecules produced by macrophages is nitric oxide (NO) and direct assays of the generation of NO released into the medium of parallel spleen cell cultures (containing both adherent and nonadherent cells) after exposure to SEA and CA4P were performed as previously described (Hegardt et al, Cancer Immunol & Immunother (2001) 50: 491-501).
The proliferative response of 3×10^5 admixed non-adherent cells (e.g. T-cells) stimulated for 4 days with SEA (0.05 ng/ml) was estimated as in Example 1. […] This effect is interpreted as due to a decrease of the suppressive effect of the IL-12 and IL-18 activated macrophages on T cell responses. Direct assays of the generation of NO released into the medium of parallel […] spleen cell cultures after exposure to SEA and CA4P were performed as previously described (Hegardt et al, 2001).
In general terms: The Griess reaction detects nitrite, a stable product of nitric oxide.

For `COc1ccc(/C=C\c2cc(OC)c(OC)c(OC)c2)cc1OP(=O)([O-])[O-].[Na+].[Na+]` [CA4P, CA4 phosphate disodium salt], the “Enhancement by combining L-NAME with combretastatin A4 prodrug” value in series [1] (CA4-P 5 mg/kg + L-NAME 48 mg/rat + vaccination) is recorded as “only a small enhancement”. Also, in series [1] (CA4P 5 mg/kg i.p. + vaccination with IL-18/IFN-γ producing tumor cells, day 28), the “Tumor growth compared to the PBS group” value is given as “inhibited the tumor growth significantly”. In addition, the results for the “Proliferative response of spleen cells (3-H-thymidine incorporation)” value in series [2] (CA4P 2 mg/kg) and in series [2] (CA4P 5 mg/kg) were “particularly effective in enhancing the anti-tumor immune response” and “some enhancement of a proliferative response”, respectively. In addition, the Solubility in water entry in series [3] is “readily soluble in water”. Moreover, the Vascular shutdown entry is “no vascular shut down could be observed” in series [4] (2 mg/kg) and “no significant vascular shutdown” in series [4] (doses below 4 mg/kg, single i.p. injection, 24 h). Besides, the “Toxicity to microvessels and immune effect” value in series [4] (higher doses, 4-100 mg/kg in the rat) was “toxic to microvessels and immunosuppressive”. Further, the “Nitric oxide production into supernatant” value in series [5] (Rat#1, Medium) was 7 µM; in series [5] (Rat#1, SEA), 8 µM; in series [5] (Rat#2, Medium), 6 µM; in series [5] (Rat#2, SEA), 7 µM. Further, the “Animals with inhibitory effect on NO production” value in series [5] (parallel studies (FIG. 3), spleen cells, SEA 0.1 ng/ml, CA4P 0.15 μg/ml) is “all 4”. Further, the “Effect on NO produced” value in series [5] (spleen cell cultures exposed to SEA and CA4P, 2 animals studied) is on record as “significant reduction of NO produced”.
